Patent US10365269B2, “System and methods for detecting ribosome inhibition” (priority 2015, dated 2019)
Entries after “also recorded” stand apart in the source; their conditions may differ.

Columns and labels:
Assay type in all cases: cell-based
[1] = test system: E. coli SH434; assay: Growth inhibition assay of aminoglycoside-sensitive E. coli SH434 (pSH6-KF, pRRSH2)
Description: (§1) All cell density and fluorescence measurements were taken in triplicate. 96-well culture plates (1 mL LB per well) with appropriate concentrations of necessary antibiotics and aminoglycoside were inoculated 1:100 from a saturated overnight liquid culture and allowed to grow for 48 hours at 37° C., 200 rpm shaking. For cell density assays, 40 μL of sample was taken from each well, diluted 5-fold, and OD600 was measured by microplate reader. The OD600 of the original culture was calculated by multiplying the reading by the dilution factor (Melançon et al., 2009, Bioorg. Med. Chem. Lett. 19:3845-3847). For cell pellet fluorescence imaging, cells were pelleted by centrifugation (4,000×g, 15 minutes, 4° C.) and the supernatant was decanted completely. […] For fluorescence quantification, cell pellets were resuspended in 1 mL of ¼×Ringer's solution (30.75 mM NaCl, 1.2 mM, KCl, 1.5 mM CaCl2, pH 7.3-7.4), 200 μL of cells from each well were transferred to black 96-well plates, and GFP fluorescence was measured (excitation=395 nm, bandwidth=9 nm; emission=509 nm, bandwidth=15 nm). Fluorescence intensities were calculated as fluorescence/OD600 of the sample minus fluorescence/OD600 of a sample of a non-GFP-expressing E. coli strain parental to the strain being analyzed in order to correct for both cell density and E. coli auto-fluorescence. […]

[2] = test system: O-ribosome; assay: O-ribosome inhibition fluorescence assay in E. coli SH399 (pSH6-KF, pRRSH2-A1408G); conditions: for relative ribosome inhibition activity (rank among ten compounds) / fluorescence at drug concentrations beyond those that give the peak response: E. coli SH399; for relative ribosome inhibition activity (rank among ten compounds): printed order: sisomicin, gentamicins, neomycin B, paromomycin, tobramycin, amikacin, ribostamycin, apramycin, kanamycin A, neamine; for detection of O-ribosome inhibition (fluorescence signal): E. coli SH399, A1408G 16S rRNA, aminoglycoside 0-500 μM, 48 h; for dose-dependent fluorescence response pattern: E. coli SH399, increasing aminoglycoside concentrations
Description: (§2) All cell density and fluorescence measurements were taken in triplicate. 96-well culture plates (1 mL LB per well) with appropriate concentrations of necessary antibiotics and aminoglycoside were inoculated 1:100 from a saturated overnight liquid culture and allowed to grow for 48 hours at 37° C., 200 rpm shaking. For cell density assays, 40 μL of sample was taken from each well, diluted 5-fold, and OD600 was measured by microplate reader. The OD600 of the original culture was calculated by multiplying the reading by the dilution factor (Melançon et al., 2009, Bioorg. Med. Chem. Lett. 19:3845-3847). For cell pellet fluorescence imaging, cells were pelleted by centrifugation (4,000×g, 15 minutes, 4° C.) and the supernatant was decanted completely. The underside of the plate was illuminated at 365 nm using an ultraviolet handheld lamp and photgraphed with an 8 megapixel digital camera. For fluorescence quantification, cell pellets were resuspended in 1 mL of ¼×Ringer's solution (30.75 mM NaCl, 1.2 mM, KCl, 1.5 mM CaCl2, pH 7.3-7.4), 200 μL of cells from each well were transferred to black 96-well plates, and GFP fluorescence was measured (excitation=395 nm, bandwidth=9 nm; emission=509 nm, bandwidth=15 nm). Fluorescence intensities were calculated as fluorescence/OD600 of the sample minus fluorescence/OD600 of a sample of a non-GFP-expressing E. coli strain parental to the strain being analyzed in order to correct for both cell density and E. coli auto-fluorescence.
Dose-dependent fluorescence responses by E. coli SH399 was observed when treated with five of these compounds as determined by plate reader fluorescence assays (see section 1.6 for experimental details). (FIG. 4A and FIG. 20).

[3] = test system: O-ribosome; assay: O-ribosome inhibition fluorescence assay in E. coli SH431 (pSH6-KF, pRRSH2-U1406A); conditions: for detection of O-ribosome inhibition (fluorescence signal): E. coli SH431, U1406A 16S rRNA, aminoglycoside 0-500 μM; for relative potency as ribosome inhibitor (rank among four compounds): printed order: gentamicins, G418 and hygromycin B, kanamycin A
Description: as §2
(§3) To extend the approach to a system with a different aminoglycoside resistance mutation, prrnC-sacB was replaced with pRRSH2-U1406A (see Section 2.2.2 for vector construction) in E. coli SQ380 (E. coli SH424), which was then transformed with pSH6-KF, resulting in the detection strain E. coli SH431. E. coli SH431 was used to conduct ribosome inhibition assays identical to those performed with E. coli SH399. Dose-dependent fluorescence responses by E. coli SH431 were observed when treated with four of these compounds as determined by plate reader fluorescence assays (see section 1.6 for experimental details), including two to which E. coli SH399 was not resistant and therefore could not produce a response. (FIG. 4B and FIG. 20).

[4] = test system: E. coli SH399; assay: Cell density (OD600) growth assay of E. coli SH399; conditions: E. coli SH399, concentrations beyond peak fluorescence response
Description: as §1

[5] = test system: E. coli SH431; assay: Cell density (OD600) growth assay of E. coli SH431
Description: as §2
as §3, with “E. coli SH431 was used to conduct ribosome inhibition assays identical to those performed with E. coli SH399.” left out, “(FIG. 4B and FIG. 20).” left out

[6] = target: T1, TetR (Escherichia coli, UniProt P04483); assay: Recovery of GFPuv fluorescence in E. coli DH5α containing pSH3-KF; conditions: saturating ATC
T1 construct: expressed in transfected cells; host or cells: E. coli DH5α transformed with pSH3-KF (tetR amplified from pSR26_2)
T1 sequence (P04483 whole entry): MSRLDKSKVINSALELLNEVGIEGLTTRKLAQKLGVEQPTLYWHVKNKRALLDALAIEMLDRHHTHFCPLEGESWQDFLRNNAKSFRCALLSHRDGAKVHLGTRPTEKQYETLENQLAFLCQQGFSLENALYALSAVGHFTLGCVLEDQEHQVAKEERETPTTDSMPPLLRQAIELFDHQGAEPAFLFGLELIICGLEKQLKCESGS
Description: as §1

[7] = test system: E. coli SH386; assay: Cell viability (OD600) assay of E. coli SH386 (pRRSH2-A1408G)
Excerpt: (§4) E. coli SQ380 was transformed with pRRSH2-A1408G; and prrnC-sacB was removed by sucrose counterselection, resulting in E. coli SH386. As a control, E. coli SQ380 was also transformed with pRRSH2; and prrnC-sacB was removed by sucrose counterselection, resulting in E. coli SH430.

[8] = test system: O-ribosome; assay: Ribosome inhibition fluorescence assay in E. coli SH391 (SH386 with pSH3-KF); conditions: E. coli SH391, kanamycin 0-500 μM
Description: All cell density and fluorescence measurements were taken in triplicate. 96-well culture plates (1 mL LB per well) with appropriate concentrations of necessary antibiotics and aminoglycoside were inoculated 1:100 from a saturated overnight liquid culture and allowed to grow for 48 hours at 37° C., 200 rpm shaking. For cell density assays, 40 μL of sample was taken from each well, diluted 5-fold, and OD600 was measured by microplate reader. The OD600 of the original culture was calculated by multiplying the reading by the dilution factor (Melançon et al., 2009, Bioorg. Med. Chem. Lett. 19:3845-3847). For cell pellet fluorescence imaging, cells were pelleted by centrifugation (4,000×g, 15 minutes, 4° C.) and the supernatant was decanted completely. […] For fluorescence quantification, cell pellets were resuspended in 1 mL of ¼×Ringer's solution (30.75 mM NaCl, 1.2 mM, KCl, 1.5 mM CaCl2, pH 7.3-7.4), 200 μL of cells from each well were transferred to black 96-well plates, and GFP fluorescence was measured (excitation=395 nm, bandwidth=9 nm; emission=509 nm, bandwidth=15 nm). Fluorescence intensities were calculated as fluorescence/OD600 of the sample minus fluorescence/OD600 of a sample of a non-GFP-expressing E. coli strain parental to the strain being analyzed in order to correct for both cell density and E. coli auto-fluorescence.

[9] = test system: E. coli SH430; assay: Cell viability (OD600) assay of E. coli SH430 (pRRSH2, wild-type 16S rRNA)
Excerpt: as §4

Molecule	detection of O-ribosome inhibition (fluorescence signal) [3]	resistance of SH431 conferred by the U1406A mutation [5]	fluorescence at drug concentrations beyond those that give the peak response [2]	detection of O-ribosome inhibition (fluorescence signal) [2]	dose-dependent fluorescence response pattern [2]	also measured
NC[C@H]1O[C@H](O[C@H]2[C@H](O)[C@@H](O)[C@H](N)C[C@@H]2N)[C@H](N)[C@@H](O)[C@@H]1O [neamine]						growth inhibition activity [1]: very weak; relative ribosome inhibition activity (rank among ten compounds) ([2]; listed as Neamine): very weak
CN[C@@H]1[C@@H](O)[C@@H](O[C@@H]2[C@@H](O)[C@H](O[C@H]3OC(CN)=CC[C@H]3N)[C@@H](N)C[C@H]2N)OC[C@]1(C)O [sisomicin]						relative ribosome inhibition activity (rank among ten compounds) [2]: strongest ribosome inhibition activity
NC[C@@H]1O[C@H](O[C@H]2[C@@H](O)[C@H](O[C@@H]3[C@@H](O)[C@H](N)C[C@H](N)[C@H]3O[C@H]3O[C@H](CO)[C@@H](O)[C@H](O)[C@H]3N)O[C@@H]2CO)[C@H](N)[C@@H](O)[C@@H]1O [paromomycin]	lack of signal	inability of the U1406A mutation to confer resistance	fluorescence decreases significantly	able to detect O-ribosome inhibition	robust fluorescence responses at low concentrations	growth inhibition accompanying the decrease in fluorescence [4]: accompanied by growth inhibition
gentamicin [gentamicins]	able to detect O-ribosome inhibition		fluorescence decreases significantly	able to detect O-ribosome inhibition	robust fluorescence responses at low concentrations	response at higher concentrations ([3]; E. coli SH431): Dose-dependent decreases in response; relative potency as ribosome inhibitor (rank among four compounds) ([3]; E. coli SH431): most potent ribosome inhibitors; growth inhibition accompanying the decrease in fluorescence [4]: accompanied by growth inhibition
CN[C@@H]1[C@@H](O[C@H]2O[C@H](CO)[C@@H](N)[C@H](O)[C@H]2O)OC2C[C@@H](N)[C@@H](O[C@H]3[C@H](O)[C@@H](O)[C@H](N)C[C@@H]3N)OC2[C@@H]1O (stereo partly drawn) [apramycin]	lack of signal	inability of the U1406A mutation to confer resistance		able to detect O-ribosome inhibition	more gradual dose-dependent fluorescence increases	
NC[C@@H]1O[C@H](O[C@H]2[C@@H](O)[C@H](O[C@@H]3[C@@H](O)[C@H](N)C[C@H](N)[C@H]3O[C@H]3O[C@H](CN)[C@@H](O)[C@H](O)[C@H]3N)O[C@@H]2CO)[C@H](N)[C@@H](O)[C@@H]1O [neomycin, neomycin B]	lack of signal	inability of the U1406A mutation to confer resistance	fluorescence decreases significantly	able to detect O-ribosome inhibition	robust fluorescence responses at low concentrations	
Cc1c2c(c(O)c3c(O)cccc13)C(=O)[C@]1(O)C(=O)C(C(N)=O)=C(O)[C@@H](N(C)C)[C@@H]1C2 [anhydrotetracycline]						fluorescence level relative to the gfp-uv/tetR-expressing strain [6]: 106.6%±1.2%
NC[C@H]1O[C@H](O[C@H]2[C@H](O)[C@@H](O[C@H]3O[C@H](CO)[C@@H](O)[C@H](N)[C@H]3O)[C@H](N)C[C@@H]2N)[C@H](O)[C@@H](O)[C@@H]1O [kanamycin, kanamycin A]	able to detect O-ribosome inhibition			able to detect O-ribosome inhibition	robust dose-dependent increase in fluorescence; also recorded: more gradual dose-dependent fluorescence increases	relative potency as ribosome inhibitor (rank among four compounds) ([3]; E. coli SH431): least potent; concentration up to which the strain is resistant (highest concentration tested) ([7]; E. coli SH386, A1408G): up to 500 μM; growth inhibition ([7]; E. coli SH386, any kanamycin concentration tested (up to 500 μM), 24 hours): no growth inhibition; increase in fluorescence [8]: ~50%; maximum induction of fluorescence ([8]; strong background fluorescence): 1.6 fold; growth inhibition ([9]; E. coli SH430, 10 μM kanamycin, 24 hours): significant growth inhibition; concentrations at which the strain cannot survive ([9]; E. coli SH430, 24 hours): above 10 μM
